Data published in patent publication US20250241838A1, “COSMETIC COMPOSITION FOR WITH ANTI-GLYCATION EFFECT FOR ENHANCING SKIN RESISTANCE TO AGING” (L'OREAL, priority 2024, published 2025).
Entries after “also recorded” stand apart in the source; their conditions may differ. Read-outs that look alike come from different tables or passages of the source.

System: BSA (bovine serum albumin)
Assay: In vitro/in tubo glycation study: BSA + D-ribose, fluorescence intensity
Type: biochemical
Description: A study was conducted in vitro/in tubo to evaluate if the ingredients of the inventive composition have anti-glycation effects in an in tubo environment.
The in tubo experiments were conducted to evaluate glycation of BSA (bovine serum albumin) under control conditions and with exposure to an embodiment of the inventive composition. Samples were prepared, including inventives, comparatives, baseline, and positive and negative controls.
A test plate was prepared with discrete wells for receiving each of the test compositions. Solutions representing the active ingredient concentrations listed under “Ingredient” in Table 3, below, were added to a well containing BSA+D-ribose (the Indicator Solution) and PBS. The total amount of Test Solutions added for the inventive compositions was always the same for all tests-25 microliters-5 microliters of each Test Solution (Ingredient) per well. PBS was used as the solvent for the Test Solution. Plates were prepared in triplicate.
Tested Compositions: Blank: PBS+BSA, Negative control: PBS+BSA+D-ribose, Positive control: PBS+BSA+D-ribose+Aminoguanidine, Five Inventive […]
Samples were plated in triplicate and readings taken at the indicated wavelength at day 1 and day 14.
Evaluations of Fluorescent Intensity were made at ex 370 nm/em 440 nm
Samples were evaluated at time intervals of 0 days, 3 days, 14 Days, 21 Days. The main purpose of incorporating time intervals is to provide sufficient duration for capturing the anti-glycation effect. It is crucial to build in multiple time points to adequately capture the anti-glycation effects since they can vary depending on the specific ingredients used.
Magnitude of fluorescence intensity is positively indicative of extent of glycation. Glycation is expected to be maximal with negative control (BSA plus D-ribose), while glycation of positive control with known antiglycation agent, Aminoguanidine, is expected to be reduced relative to negative control.
Evaluation of anti-glycation effect of individual ingredients: each of Activated C, Dandelion Extract, Caffeine, Lavender Oil, and Vitamin E (5 microliter quantities) were plated with 245 microliter of [PBS+BSA+D-ribose]. Concentrations of each ingredient added to the wells were as follows Activated C (100%, 50%, 10%, 5% and 1%), Dandelion Extract (100%, 50%, 30%, 15% and 3%), Caffeine (2%, 1.5%, 1%, 0.5% and 0.1%), Lavender Oil (100%, 50%, 0.15%, 0.08% and 0.15%), and Vitamin E (100%, 50%, 1%, 0.5% and 0.1%).

[1] = each ingredient alone, 5 microliter plated with 245 microliter PBS+BSA+D-ribose, five concentrations each, data not shown

CCOC1=C(O)C(=O)O[C@@H]1[C@@H](O)CO [Activated C, 3-O-ETHYL ASCORBIC ACID]
anti-glycation effect of individual ingredients [1]: glycation effect only at high levels | anti-glycation effect of individual ingredients (each ingredient alone, 5 microliter plated with 245 microliter PBS+BSA+D-ribose, five concentrations each, data not shown, listed as Ascorbic acid): reduction of glycation at high doses only

Cn1c(=O)c2c(ncn2C)n(C)c1=O [Caffeine]
anti-glycation effect of individual ingredients: no glycation effect; also recorded: no significant reduction in glycation

N=C(N)NN [Positive control, Aminoguanidine]
Fluorescence intensity (day 14 readings, ex 370 nm/em 440 nm, PBS+BSA+D-ribose, intensity positively indicative of extent of glycation): 2.921 | Percent reduction in glycation (%) (day 14 readings, relative to negative control (PBS+BSA+D-ribose)): 23%

tocopherol [Vitamin E]
anti-glycation effect of individual ingredients [1]: no glycation effect | anti-glycation effect of individual ingredients (each ingredient alone, 5 microliter plated with 245 microliter PBS+BSA+D-ribose, five concentrations each, data not shown, listed as vitamin E): no significant reduction in glycation
